Literature values, collected in US7026304B2, “2-alkylated-cyclodextrin derivatives: reversal agents for drug-induced neuromuscular block” (Akzo Nobel N.V., priority 2001, dated 2006).

Tested on: steady-state neuromuscular block induced by the muscle relaxant rocuronium bromide (Roc)
Settings: anaesthetized guinea pigs, as already described in WO 01/12202, cited from earlier work

OC[C@H]1O[C@@H]2O[C@H]3[C@H](O)[C@@H](O)[C@@H](O[C@H]4[C@H](O)[C@@H](O)[C@@H](O[C@H]5[C@H](O)[C@@H](O)[C@@H](O[C@H]6[C@H](O)[C@@H](O)[C@@H](O[C@H]7[C@H](O)[C@@H](O)[C@@H](O[C@H]8[C@H](O)[C@@H](O)[C@@H](O[C@H]9[C@H](O)[C@@H](O)[C@@H](O[C@H]1[C@H](O)[C@H]2O)O[C@@H]9CO)O[C@@H]8CO)O[C@@H]7CO)O[C@@H]6CO)O[C@@H]5CO)O[C@@H]4CO)O[C@@H]3CO [γ-cyclodextrin]
ED50, dose producing 50% reversal of steady-state neuromuscular block (parent cyclodextrins for comparison): 4 µmol/kg
% max reversal (parent cyclodextrins): 104%
dose at maximum reversal (parent cyclodextrins): (47) μmol · kg^−1
